The results in this text go back to article PMC9688808, “Discovery of Novel Lin28 Inhibitors to Suppress Cancer Cell Stemness” (Cancers, 2022).

The test system of experiment [1] is DUNE cells. Put plainly: Real-time qPCR of CSC and neuroendocrine biomarkers in DUNE cells. The class given is cell-based. Particulars: 20 uM, 48 h. The protocol: (§1) There are several standard molecular techniques, including real-time qPCR, flow cytometry, cell proliferation, colony formation, and immunoblotting assays, that have been reported previously by our lab.
Figure 6 Lin28 inhibitors block the expression of NE and CSC biomarkers. DUNE cells were treated with 20 uM of the indicated compound for 48 h. Real-time qPCR measured RNA levels of neuroendocrine (A) and CSC (B) biomarkers. Three biological replicates were performed and all results are presented as mean +/− SD. p-value ≤ 0.05—(*); ≤0.01—(**); ≤0.001—(***).

Experiment [2] addresses T1, Lin28B ZKD (Homo sapiens, UniProt Q6ZN17).
T1 construct: His-tagged human Lin28B ZKD (aa110-174); His-tag; made in house; host or cells: Escherichia coli BL21
T1 sequence (Q6ZN17 110-174): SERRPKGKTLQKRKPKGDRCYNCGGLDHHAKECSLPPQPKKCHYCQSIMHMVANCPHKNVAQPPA
Kind of experiment: Fluorescence polarization (FP) assay, Lin28B ZKD with FAM-labeled Let-7 probe. The class given is binding. Particulars: for IC50: 10 uM Lin28B ZKD, 1 nM FAM-labeled Let-7 probe, 1 nM–1000 uM compound. An excerpt: ZINC compounds were purchased from Enamine (Kyiv, Ukraine), Life Chemicals Ltd. (Kyiv, Ukraine), or Princeton Biomolecular Research (Princeton, NJ, USA) with >90% purity. Upon receiving the compounds, the molecular masses were validated by LC/MS/MS. His-tagged human Lin28B ZKD (aa110-174), Lin28B CSD+ZKD (aa7-204), and Lin28A ZKD (aa121-187) were expressed in Escherichia coli BL21 cells and purified by immobilized metal ion affinity chromatography (IMAC) with nickel nitrilotriacetic acid (NiNTA) resin and size exclusion chromatography (s75 10/300 GL) as we have previously reported.
The fluorescein amidites (FAM)-tagged Let-7 probe with the sequence of […] was purchased from Integrated DNA Technologies (IDT). The probe at the concentrations ranging from 1 nM to 50 uM was incubated with Lin28B (ZKD) or Lin28 (CSD+ZKD) to a final volume of 30 uL at room temperature for 20 min. To read the fluorescence, a TECAN 500 machine was used. Fluorescence polarization was calculated using the following equation: P=Fparrallel−Fperpendicular/Fparrallel+Fperpendicular where P is the fluorescence polarization reading, F parallel is the fluorescence intensity acquired from the parallel excitation plane, and F perpendicular is the fluorescence intensity acquired from the perpendicular direction of the excitation plane. The total fluorescence intensity is estimated using the following equation: F=Fparallel+2Fperpendicular
All the raw FP signal data from the TECAN 500 FP results were analyzed using Prism 8.0 (GraphPad, San Diego, CA, USA); normalized curves were plotted and IC50 values were estimated. All FP data were repeated three to five times.
To test the predicted compounds by CADD, we established an FP assay using both Lin28B ZKD and Lin28B CSD+ZKD to be incubated with a FAM-labeled Let-7 oligo containing the GGAG motif. To validate that the signals obtained from FP assays reflect the interaction between Lin28 and Let-7, we have tested: (1) 1 nM–50 uM FAM-labeled Let-7 probes with 10 uM Lin28 proteins and observed a dose-dependent reduction of FP signal; (2) 1 nM FAM labeled Let-7 probes with 1 nM–50 uM Lin28 proteins and observed a dose-dependent increase of FP signal; (3) 1 nM–50 uM doses of non-labeled Let-7 oligo to be incubated with 1 nM FAM probe and 10 uM Lin28 proteins, and observed a dose-dependent reduction of FP signal (Figure 2A,B).
Figure 2 Establishment of the Fluorescence Polarization Assay and Initial compound screening. (A) Graphical representation of the FP assay principle. As the labeled probe floats freely in the solution, it rotates more rapidly, producing a low FP signal. When the labeled probe binds to proteins, it rotates slower and produces a high FP signal. (B) In FP assays, probe titration was performed by using 10 uM protein with […] FAM-labeled Let-7 probe (n = 9 replicates). Protein titration was performed by using 1 nM of FAM-labeled Let-7 probe with 1 nM–50 uM Lin28B ZKD protein (n = 9 replicates), and competition titration using 1 nM–50 µM non-labeled Let-7 probe with 10 uM of Lin28B ZKD protein with 1 nM FAM-labeled Let-7 probe (9 replicates). (C) FP assays were used to screen 163 compounds at the concentration of 20 uM using 1 nM of FAM-labeled Let-7 probe with 10 uM Lin28B ZKD protein.
Figure 3 Lin28 inhibitors block the interaction between Lin28B ZKD and Let-7. […]

Experiment [3] concerns DUNE cells. Kind of experiment: Real-time qPCR of Let-7d, SOX2, HMGA2 in DUNE cells. The class given is cell-based. The note with it: 20 uM, 48 h. The protocol:
The DUNE cell line and DUNE cells with Lin28B knockout by CRISPR (DUNE (KO)) were reported in our previous studies. IGROV1 cells were obtained from Sigma-Aldrich (St. Louis, MO, USA). DUNE and DUNE (KO) cells were cultured in Dulbecco’s Modified Eagle Medium with high Glucose/L-glutamine (DMEM; Hyclone, Logan, UT, USA) and 10% of fetal bovine serum (FBS; Gibico, Waltham, MA, USA). IGROV1 cells were cultured in Roswell Park Memorial Institute 1640 (RPMI-1640; Hyclone) medium with 10% FBS. All the cell lines were incubated in 5% CO2 at 37 °C and were tested for mycoplasma contamination monthly and cell line authentication was tested by short tandem repeat profiling by ATCC.
as §1
Figure 4 Lin28 inhibitors restore Let-7d expression and suppress SOX2 and HMGA2 genes. DUNE (top) and DUNE (KO) (bottom) cells were treated with 20 uM of the indicated compounds for 48 h. Real-time qPCR measured RNA levels of Let-7d, SOX2, and HMGA2. Three biological replicates were performed and all results are presented as mean +/− SD. p-value ≤ 0.05—(*); ≤0.01—(**); ≤0.001—(***).
(Quantitative PCR measures a nucleic acid by following its amplification.)

On to `CCOc1cccc2c1N[C@@H](c1ccc(C(=O)O)cc1)[C@H]1CC=C[C@@H]21` [Li71, reference compound], for which the “expression of CSC markers (IGF2BP1, CDH2, FOXD3, HEY1, ALDH1A2, CDK6, FOXC1, SIX2, ID4)” value (shortened to “expression of CSC markers”) in experiment [1] was “variable mild inhibitory effects or no inhibition”. Further, the 50% inhibitory concentration (IC50) – broadly, the concentration needed to halve the response being measured – in experiment [2] was 55 µM. Also, in experiment [3], the “HMGA2 mRNA level” value was “strongly inhibited”, the Let-7d expression level entry is reported as “approximately six- to eight-fold” and the “SOX2 mRNA level” value is recorded as “strongly inhibited”.

On to `CC(=O)N(C)c1cccc(-c2ccc3nnc(C)n3n2)c1` [compound 1632, reference compound], for which the “expression of CSC markers” value in experiment [1] is “variable mild inhibitory effects or no inhibition”. In addition, in experiment [2] (Lin28B ZKD titration), the “maximum inhibition in FP assay” value is reported as at most 50%. In experiment [3], the “HMGA2 mRNA level” value is “not”, the Let-7d expression level entry was “did not show any impacts” and the “SOX2 mRNA level” value was “not”.

For the compound `O=c1[nH]c(Nc2ccccc2O)cs1` [Ln15], in experiment [1], the “expression of CSC markers” value is recorded as “reductions” and the “expression of neuroendocrine markers (ASCL1, CHGB, SCGN, SYP, STT4)” value (“expression of neuroendocrine markers” for short) is “blocked”. In experiment [2], the IC50 is around 9 µM. In addition, in experiment [3], the “HMGA2 mRNA level” value is “strongly inhibited”, the Let-7d expression level result was “approximately six- to eight-fold” and the “SOX2 mRNA level” value is “strongly inhibited”.

`CCc1cc(=O)[nH]c(Nc2cc(Cl)ccc2O)n1` [Ln7]: in experiment [1], the “expression of CSC markers” value is on record as “reductions” and the “expression of neuroendocrine markers” value is recorded as “blocked”. For the same compound, the half-maximal inhibitory concentration (IC50) in experiment [2] is around 45 µM. Further, in experiment [3], the “HMGA2 mRNA level” value was “strongly inhibited”, the Let-7d expression level result is recorded as “approximately six- to eight-fold” and the “SOX2 mRNA level” value is reported as “strongly inhibited”.

In the case of `O=c1cccc(-c2nc3cc(F)c(O)cc3c(=O)[nH]2)[nH]1` [Ln115], in experiment [1], the “expression of CSC markers” value is “reductions”; the “expression of neuroendocrine markers” value is on record as “blocked”; the “suppression of CDH2 expression” value is “up to 90%”; the “suppression of FOXD3 expression” value is recorded as “up to 90%”. The compound further came in with a half-maximal inhibitory concentration (IC50) in experiment [2] of around 21 µM. Also, in experiment [3], the “HMGA2 mRNA level” value is on record as “strongly inhibited”, the Let-7d expression level entry is reported as “approximately six- to eight-fold” and the “SOX2 mRNA level” value is recorded as “strongly inhibited”.
